The numbers were not newly measured in paper PMC6429214, “Design, Synthesis and Biological Evaluation of Isoxazole-Based CK1 Inhibitors Modified with Chiral Pyrrolidine Scaffolds” (Molecules, 2019), which cites them from elsewhere.

Usually IC50 stands for the concentration that gives 50% inhibition.

Holding throughout (details): cited from earlier work
In series [1] the test system is p38α. Further details: method as in PMID 18763757.
Series [2] concerns Trk. Further details: method as in PMID 20336234.
In series [3] the test system is CK1δ. Further details: method as in PMID 19591487.

Each structure is given as a SMILES string.

On to `CC(C)C(C)Nc1cc(-c2[nH]c(SC[C@@H](O)CO)nc2-c2ccc(F)cc2)ccn1` (stereo partly drawn) [compound 5], for which the half-maximal inhibitory concentration (IC50) in series [1] was 15 nM.

As for `C[C@]12O[C@H](C[C@]1(O)CO)n1c3ccccc3c3c4c(c5c6ccccc6n2c5c31)CNC4=O` [compound 7], the IC50 in series [2] is 25 nM. Consider `COc1ccc(/C=C/C(=O)Nc2cc(-c3c(-c4ccc(F)cc4)noc3C(C)C)ccn2)c(OC)c1` [compound 8], for which the IC50 in series [3] is 33 nM.
